Test results published in patent US10597388B2, “Pyridazinone herbicides” (FMC CORPORATION, priority 2014, dated 2020).

Columns and labels:
Test in all cases: Test D controlled growth environment herbicide test, pre- and postemergence
Assay type in all cases: in vivo
[1] = tested on: field poppy (Papaver rhoeas)
Summary of the method: (§1)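 Rating is visual, 0–100 scale (100 = complete control), made against untreated plants 14–21 d after treatment in controlled growth conditions. Postemergence sprays went onto 1- to 4-leaf plants in peat medium; preemergence sprays onto silt loam after sowing; formulation included a surfactant.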

[2] = tested on: deadnettle (henbit deadnettle, Lamium amplexicaule)
Summary of the method: as §1

[3] = tested on: wheat, spring (spring wheat, Triticum aestivum)
Summary of the method: as §1

[4] = tested on: speedwell (bird's-eye speedwell, Veronica persica)
Summary of the method: as §1

[5] = tested on: ryegrass, Italian (Italian ryegrass, Lolium multiflorum)
Summary of the method: as §1

[6] = tested on: barley, spring (spring barley, Hordeum vulgare)
Summary of the method: as §1

[7] = tested on: oat, wild (wild oat, Avena fatua)
Summary of the method: as §1

[8] = tested on: Russian thistle (Salsola kali)
Summary of the method: as §1

[9] = tested on: windgrass (Apera spica-venti)
Summary of the method: as §1

[10] = tested on: buckwheat, wild (wild buckwheat, Polygonum convolvulus)
Summary of the method: as §1

[11] = tested on: oilseed rape (Brassica napus)
Summary of the method: as §1

[12] = tested on: canarygrass (Phalaris minor)
Summary of the method: as §1

[13] = tested on: radish, wild (wild radish, Raphanus raphanistrum)
Summary of the method: as §1

[14] = Postemergence, 31 g ai/ha, scale 0 to 100 (0 no effect, 100 complete control)
[15] = Postemergence, 125 g ai/ha, visual rating on scale 0 (no effect) to 100 (complete control), 14 to 21 d
[16] = Postemergence, 250 g ai/ha, scale 0 to 100 (0 no effect, 100 complete control)
[17] = Preemergence, 62 g ai/ha, scale 0 to 100 (0 no effect, 100 complete control)
[18] = Preemergence, 125 g ai/ha, scale 0 to 100 (0 no effect, 100 complete control)
[19] = Preemergence, 250 g ai/ha, scale 0 to 100, 0 no effect, 100 complete control
[20] = postemergence, 62 g ai/ha, scale 0 to 100, 0 no effect, 100 complete control

Cc1ccc2ccccc2c1-c1c(OC(=O)OC(C)C)c(C)nn(C)c1=O [Compound 72]
Field Poppy plant response rating [1, 14]: 80 | Plant response rating, Field Poppy [1, 15]: 100 | Plant response rating, Field Poppy [1, 16]: 100 | Plant response rating (scale of 0 to 100), Field Poppy ([1]; Preemergence, 31 g ai/ha): 100 | Plant response rating, Field Poppy [1, 17]: 100 | Plant response rating, Field Poppy [1, 18]: 100 | Plant response rating, Field Poppy [1, 19]: 100 | Plant response rating, Field Poppy [1, 20]: 90 | Deadnettle plant response rating [2, 14]: 85 | Plant response rating, Deadnettle [2, 15]: 100 | Plant response rating, Deadnettle [2, 16]: 100 | Plant response rating (scale of 0 to 100), Deadnettle ([2]; Preemergence, 31 g ai/ha): 5 | Plant response rating, Deadnettle [2, 17]: 15 | Plant response rating, Deadnettle [2, 18]: 65 | Plant response rating, Deadnettle [2, 19]: 70 | Plant response rating, Deadnettle [2, 20]: 90 | Wheat, Spring plant response rating [3, 14]: 40 | Plant response rating, Wheat, Spring [3, 15]: 60 | Plant response rating, Wheat, Spring [3, 16]: 70 | Plant response rating (scale of 0 to 100), Wheat, Spring ([3]; Preemergence, 31 g ai/ha): 0 | Plant response rating, Wheat, Spring [3, 17]: 35 | Plant response rating, Wheat, Spring [3, 18]: 65 | Plant response rating, Wheat, Spring [3, 19]: 80 | Plant response rating, Wheat, Spring [3, 20]: 50 | Speedwell plant response rating [4, 14]: 75 | Plant response rating, Speedwell [4, 15]: 100 | Plant response rating, Speedwell [4, 16]: 80 | Plant response rating (scale of 0 to 100), Speedwell ([4]; Preemergence, 31 g ai/ha): 5 | Plant response rating, Speedwell [4, 17]: 70 | Plant response rating, Speedwell [4, 19]: 100 | Plant response rating, Speedwell [4, 20]: 75 | Ryegrass, Italian plant response rating [5, 14]: 95 | Plant response rating, Ryegrass, Italian [5, 15]: 95 | Plant response rating, Ryegrass, Italian [5, 16]: 100 | Plant response rating (scale of 0 to 100), Ryegrass, Italian ([5]; Preemergence, 31 g ai/ha): 55 | Plant response rating, Ryegrass, Italian [5, 17]: 75 | Plant response rating, Ryegrass, Italian [5, 18]: 100 | Plant response rating, Ryegrass, Italian [5, 19]: 90 | Plant response rating, Ryegrass, Italian [5, 20]: 95 | Barley, Spring plant response rating [6, 14]: 5 | Plant response rating, Barley, Spring [6, 15]: 10 | Plant response rating, Barley, Spring [6, 16]: 15 | Plant response rating (scale of 0 to 100), Barley, Spring ([6]; Preemergence, 31 g ai/ha): 0 | Plant response rating, Barley, Spring [6, 17]: 0 | Plant response rating, Barley, Spring [6, 18]: 0 | Plant response rating, Barley, Spring [6, 19]: 60 | Plant response rating, Barley, Spring [6, 20]: 5 | Oat, Wild plant response rating [7, 14]: 85 | Plant response rating, Oat, Wild [7, 15]: 95 | Plant response rating, Oat, Wild [7, 16]: 98 | Plant response rating (scale of 0 to 100), Oat, Wild ([7]; Preemergence, 31 g ai/ha): 65 | Plant response rating, Oat, Wild [7, 17]: 75 | Plant response rating, Oat, Wild [7, 18]: 85 | Plant response rating, Oat, Wild [7, 19]: 95 | Plant response rating, Oat, Wild [7, 20]: 85 | Russian Thistle plant response rating [8, 14]: 70 | Plant response rating, Russian Thistle [8, 15]: 80 | Plant response rating, Russian Thistle [8, 16]: 85 | Plant response rating (scale of 0 to 100), Russian Thistle ([8]; Preemergence, 31 g ai/ha): 0 | Plant response rating, Russian Thistle [8, 17]: 10 | Plant response rating, Russian Thistle [8, 18]: 15 | Plant response rating, Russian Thistle [8, 19]: 25 | Plant response rating, Russian Thistle [8, 20]: 75 | Windgrass plant response rating [9, 14]: 65 | Plant response rating, Windgrass [9, 15]: 80 | Plant response rating, Windgrass [9, 16]: 85 | Plant response rating (scale of 0 to 100), Windgrass ([9]; Preemergence, 31 g ai/ha): 25 | Plant response rating, Windgrass [9, 17]: 65 | Plant response rating, Windgrass [9, 18]: 80 | Plant response rating, Windgrass [9, 19]: 90 | Plant response rating, Windgrass [9, 20]: 75 | Buckwheat, Wild plant response rating [10, 14]: 95 | Plant response rating, Buckwheat, Wild [10, 15]: 100 | Plant response rating, Buckwheat, Wild [10, 16]: 100 | Plant response rating (scale of 0 to 100), Buckwheat, Wild ([10]; Preemergence, 31 g ai/ha): 0 | Plant response rating, Buckwheat, Wild [10, 17]: 0 | Plant response rating, Buckwheat, Wild [10, 18]: 15 | Plant response rating, Buckwheat, Wild [10, 19]: 10 | Plant response rating, Buckwheat, Wild [10, 20]: 100 | Oilseed Rape plant response rating [11, 14]: 65 | Plant response rating, Oilseed Rape [11, 15]: 80 | Plant response rating, Oilseed Rape [11, 16]: 90 | Plant response rating (scale of 0 to 100), Oilseed Rape ([11]; Preemergence, 31 g ai/ha): 5 | Plant response rating, Oilseed Rape [11, 17]: 15 | Plant response rating, Oilseed Rape [11, 18]: 15 | Plant response rating, Oilseed Rape [11, 19]: 25 | Plant response rating, Oilseed Rape [11, 20]: 70 | Canarygrass plant response rating [12, 14]: 40 | Plant response rating, Canarygrass [12, 15]: 80 | Plant response rating, Canarygrass [12, 16]: 85 | Plant response rating (scale of 0 to 100), Canarygrass ([12]; Preemergence, 31 g ai/ha): 0 | Plant response rating, Canarygrass [12, 17]: 80 | Plant response rating, Canarygrass [12, 18]: 85 | Plant response rating, Canarygrass [12, 19]: 95 | Plant response rating, Canarygrass [12, 20]: 50 | Radish, Wild plant response rating [13, 14]: 75 | Plant response rating, Radish, Wild [13, 15]: 90 | Plant response rating, Radish, Wild [13, 16]: 95 | Plant response rating (scale of 0 to 100), Radish, Wild ([13]; Preemergence, 31 g ai/ha): 0 | Plant response rating, Radish, Wild [13, 17]: 0 | Plant response rating, Radish, Wild [13, 18]: 50 | Plant response rating, Radish, Wild [13, 19]: 50 | Plant response rating, Radish, Wild [13, 20]: 80
